Series [1] concerns the target T1, CFTR (Homo sapiens, UniProt P13569). As to the kind of experiment: Membrane Potential Dye, Enteroid Assay A. The series is classed as cell-based. The settings on record: for EC50: read-out: Ent. A EC50. In a few lines: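 Primary human intestinal enteroid cells exposed to compound for 18–24 hours at 37 °C, then loaded 25 min with methyl oxonol membrane potential dye plus CaCC inhibitors. Chloride transport triggered in chloride-free buffer with 10 μM forskolin, 100 μM IBMX and 300 nM Compound III, fluorescence read 15 min; % Activity relative to a triple-combination corrector/potentiator control.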

For series [2] the following is noted: amide bond, 13-membered ring, DMF.
Series [3] deals with T1, CFTR. Put plainly: Membrane Potential Dye, Enteroid Assay B. The series is classed as cell-based. In a few lines:
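Activity given as % of a triple-combination reference (1 μM and 3 μM correctors, 300 nM acute potentiator). Enteroids were preincubated 18-24 h with compound; chloride efflux then measured 15 min by methyl oxonol fluorescence after forskolin/IBMX/Compound III stimulation in chloride-free buffer containing CaCCinh-A01 and Chicago Sky Blue.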

SMILES strings stand for the structures. Like-named read-outs stand apart in the source and are kept apart here.

T1 sequence (P13569 with tags, fused parts or gaps DEL508-508): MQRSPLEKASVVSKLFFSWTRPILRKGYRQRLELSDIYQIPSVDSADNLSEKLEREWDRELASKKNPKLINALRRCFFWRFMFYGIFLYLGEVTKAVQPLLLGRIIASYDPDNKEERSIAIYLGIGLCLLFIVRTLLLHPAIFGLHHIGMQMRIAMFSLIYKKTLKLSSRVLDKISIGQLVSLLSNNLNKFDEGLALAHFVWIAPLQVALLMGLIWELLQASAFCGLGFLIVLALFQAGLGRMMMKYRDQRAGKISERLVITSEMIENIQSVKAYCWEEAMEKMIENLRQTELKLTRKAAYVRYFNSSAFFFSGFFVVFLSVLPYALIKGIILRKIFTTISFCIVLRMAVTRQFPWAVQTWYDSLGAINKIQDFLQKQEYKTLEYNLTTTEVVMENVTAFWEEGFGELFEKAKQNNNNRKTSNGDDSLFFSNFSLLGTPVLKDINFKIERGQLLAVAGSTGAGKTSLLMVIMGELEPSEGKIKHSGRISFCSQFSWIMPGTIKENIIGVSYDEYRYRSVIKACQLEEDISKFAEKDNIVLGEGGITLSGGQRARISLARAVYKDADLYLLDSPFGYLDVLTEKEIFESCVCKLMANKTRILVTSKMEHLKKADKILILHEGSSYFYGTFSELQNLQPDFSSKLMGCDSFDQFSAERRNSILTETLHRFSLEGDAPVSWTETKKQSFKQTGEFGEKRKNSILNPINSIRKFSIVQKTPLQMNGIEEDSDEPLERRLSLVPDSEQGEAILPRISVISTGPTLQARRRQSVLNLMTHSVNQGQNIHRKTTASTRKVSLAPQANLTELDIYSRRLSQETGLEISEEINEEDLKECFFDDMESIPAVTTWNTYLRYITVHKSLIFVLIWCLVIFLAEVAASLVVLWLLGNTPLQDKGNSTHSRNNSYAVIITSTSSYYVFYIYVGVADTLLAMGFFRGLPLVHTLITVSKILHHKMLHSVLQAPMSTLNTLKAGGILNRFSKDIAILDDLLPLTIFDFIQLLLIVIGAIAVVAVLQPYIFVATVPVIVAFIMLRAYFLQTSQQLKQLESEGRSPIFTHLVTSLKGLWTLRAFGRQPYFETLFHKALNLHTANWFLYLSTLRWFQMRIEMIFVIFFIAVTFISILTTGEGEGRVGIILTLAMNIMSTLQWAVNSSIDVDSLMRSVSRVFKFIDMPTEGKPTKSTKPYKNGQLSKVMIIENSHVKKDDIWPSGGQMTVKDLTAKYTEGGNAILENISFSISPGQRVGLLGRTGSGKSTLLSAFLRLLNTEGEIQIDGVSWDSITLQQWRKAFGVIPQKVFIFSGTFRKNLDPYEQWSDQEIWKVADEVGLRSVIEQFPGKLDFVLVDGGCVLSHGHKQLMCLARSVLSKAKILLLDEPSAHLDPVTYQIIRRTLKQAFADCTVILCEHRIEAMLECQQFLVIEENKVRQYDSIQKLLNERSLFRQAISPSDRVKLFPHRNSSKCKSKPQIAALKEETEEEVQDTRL

Take `Cc1cccc(C)c1-c1cc2nc(n1)NS(=O)(=O)c1cccc(c1)C(=O)N(C1CC3(CCOCC3)C1)[C@H](CC(C)C)CO2` [Compound 31, (11R)-6-(2,6-Dimethylphenyl)-11-isobutyl-12-(7-oxaspiro[3.5]nonan-2-yl)-2,2-dioxo-9-oxa-2λ^6-thia-3,5,12,19-tetrazatricyclo[12.3.1.14,8]nonadeca-1(18),4(19),5,7,14,16-hexaen-13-one]: on CFTR [1], the “Ent. A Max Activity (%)” value is reported as “+++ (+++ is >60%)” and the EC50 is less than 1000 nM. For the same compound, in series [2] (from Cc1cccc(C)c1-c1cc(OC[C@@H](CC(C)C)NC2CC3(CCOCC3)C2)nc(NS(=O)(=O)c2cccc(C(=O)O)c2)n1, HATU/DIEA, 25.0 °C, 2.0 h, 2 steps), the ring closure, yield after HPLC was found to be 28%.

Turning to `Cc1cccc(C)c1-c1cc2nc(n1)NS(=O)(=O)c1cccc(c1)C(=O)N(C1CC3(CC3)C1)[C@H](C)CO2` [Compound 126, (11R)-6-(2,6-dimethylphenyl)-11-methyl-12-{spiro[2.3]hexan-5-yl}-9-oxa-2λ^6-thia-3,5,12,19-tetraazatricyclo[12.3.1.14,8]nonadeca-1(17),4(19),5,7,14(18),15-hexaene-2,2,13-trione], on CFTR [1], the “Ent. A Max Activity (%)” value was “++ (++ is 30-60%)” and the EC50 lay within 1000 to 3000 nM. This compound showed a ring closure, yield after HPLC in series [2] (from Cc1cccc(C)c1-c1cc(OC[C@@H](C)NC2CC3(CC3)C2)nc(NS(=O)(=O)c2cccc(C(=O)O)c2)n1, HATU/TEA, 20.9 mM, 96.0 h) of 47%.

Consider `Cc1cccc(C)c1-c1cc2nc(n1)NS(=O)(=O)c1cccc(c1)C(=O)N(C1CC3(CC3)C1)C[C@@H](C)O2` [Compound 180, (10R)-6-(2,6-Dimethylphenyl)-10-methyl-2,2-dioxo-12-spiro[2.3]hexan-5-yl-9-oxa-2λ^6-thia-3,5,12,19-tetrazatricyclo[12.3.1.14,8]nonadeca-1(18),4(19),5,7,14,16-hexaen-13-one], for which the “Ent. B Max Activity (%)” value at CFTR [3] is reported as “+++ (+++ is >60%)”. The EC50 at CFTR [3] (read-out: Ent. B EC50) was less than 1000 nM. The compound also had a ring closure, yield after HPLC in series [2] (from Cc1cccc(C)c1-c1cc(O[C@H](C)CNC2CC3(CC3)C2)nc(NS(=O)(=O)c2cccc(C(=O)O)c2)n1, HATU/DIEA, 7.3 mM, 1.0 h, 2 steps) of 6%.

`Cc1cccc(C)c1-c1cc2nc(n1)NS(=O)(=O)c1cccc(c1)C(=O)N(C1CC3(CCC3)C1)[C@H](CC(C)C)CO2` [Compound 32, (11R)-6-(2,6-dimethylphenyl)-11-isobutyl-2,2-dioxo-12-spiro[3.3]heptan-2-yl-9-oxa-2λ^6-thia-3,5,12,19-tetrazatricyclo[12.3.1.14,8]nonadeca-1(18),4(19),5,7,14,16-hexaen-13-one]: on CFTR [1], the “Ent. A Max Activity (%)” value was “++ (++ is 30-60%)” and the EC50 is less than 1000 nM. This compound showed a ring closure, yield after HPLC in series [2] (from Cc1cccc(C)c1-c1cc(OC[C@@H](CC(C)C)NC2CC3(CCC3)C2)nc(NS(=O)(=O)c2cccc(C(=O)O)c2)n1, HATU/DIEA, 25.0 °C, 2.0 h, 2 steps) of 44%.

On to `Cc1cccc(C)c1-c1cc2nc(n1)NS(=O)(=O)c1cccc(c1)C(=O)N(C1CC3(CC3)C1)[C@H](CC1CCCCC1)[C@@H](C1CC1)O2` [Compound 1, (10R,11R)-11-(Cyclohexylmethyl)-10-cyclopropyl-6-(2,6-dimethylphenyl)-2,2-dioxo-12-spiro[2.3]hexan-5-yl-9-oxa-2λ^6-thia-3,5,12,19-tetrazatricyclo[12.3.1.14,8]nonadeca-1(18),4(19),5,7,14,16-hexaen-13-one], for which, on CFTR [1], the “Ent. A Max Activity (%)” value is given as “+++ (+++ is >60%)” and the EC50 was less than 1000 nM. Besides, the ring closure, yield after HPLC in series [2] (from Cc1cccc(C)c1-c1cc(O[C@H](C2CC2)[C@@H](CC2CCCCC2)NC2CC3(CC3)C2)nc(NS(=O)(=O)c2cccc(C(=O)O)c2)n1, COMU/TEA, 10.8 mM, 25.0 °C, 1.0 h) amounted to 31%.

Regarding `Cc1cccc(C)c1-c1cc2nc(n1)NS(=O)(=O)c1cccc(c1)C(=O)N(C1CC(C)(C)C1)[C@H](CC(C)C)CO2` [Compound 28, (11R)-12-(3,3-Dimethylcyclobutyl)-6-(2,6-dimethylphenyl)-11-isobutyl-2,2-dioxo-9-oxa-2λ^6-thia-3,5,12,19-tetrazatricyclo[12.3.1.14,8]nonadeca-1(18),4(19),5,7,14,16-hexaen-13-one], on CFTR [1], the “Ent. A Max Activity (%)” value is recorded as “+++ (+++ is >60%)” and the EC50 was less than 1000 nM. In series [2] (from Cc1cccc(C)c1-c1cc(OC[C@@H](CC(C)C)NC2CC(C)(C)C2)nc(NS(=O)(=O)c2cccc(C(=O)O)c2)n1, HATU/DIEA, 18.9 mM, 25.0 °C, 2.0 h), this compound returned a ring closure, yield after HPLC of 60%.

Consider `Cc1cccc(C)c1-c1cc2nc(n1)NS(=O)(=O)c1cccc(c1)C(=O)N(C1CC3(CC3)C1)[C@H](CC(C)(C)C)CO2` [Compound 182, (11R)-6-(2,6-Dimethylphenyl)-11-(2,2-dimethylpropyl)-2,2-dioxo-12-spiro[2.3]hexan-5-yl-9-oxa-2λ^6-thia-3,5,12,19-tetrazatricyclo[12.3.1.14,8]nonadeca-1(18),4(19),5,7,14,16-hexaen-13-one], for which, on CFTR [1], the “Ent. A Max Activity (%)” value is on record as “+++ (+++ is >60%)” and the EC50 was less than 1000 nM. Besides, the “Ent. B Max Activity (%)” value at CFTR [3] was “+++ (+++ is >60%)”. Further, the EC50 on CFTR [3] (read-out: Ent. B EC50) is less than 1000 nM. This compound also had a ring closure, yield after HPLC in series [2] (from Cc1cccc(C)c1-c1cc(OC[C@@H](CC(C)(C)C)NC2CC3(CC3)C2)nc(NS(=O)(=O)c2cccc(C(=O)O)c2)n1, HATU/DIEA, 26.5 mM, 6.0 h) of 54%.

Consider `Cc1cc(F)cc(C)c1-c1cc2nc(n1)NS(=O)(=O)c1cccc(c1)C(=O)N(C1CC3(CC3)C1)[C@H](CC(C)C)CO2` [Compound 10, (11R)-6-(4-Fluoro-2,6-dimethyl-phenyl)-11-isobutyl-2,2-dioxo-12-spiro[2.3]hexan-5-yl-9-oxa-2λ^6-thia-3,5,12,19-tetrazatricyclo[12.3.1.14,8]nonadeca-1(18),4(19),5,7,14,16-hexaen-13-one], for which the “Ent. B Max Activity (%)” value at CFTR [3] (Table 9) is listed as “+++ (+++ is >60%)”. Also, the EC50 on CFTR [3] (Table 9, read-out: Ent. B EC50) was less than 1000 nM. Besides, in series [2] (from Cc1cc(F)cc(C)c1-c1cc(OC[C@@H](CC(C)C)NC2CC3(CC3)C2)nc(NS(=O)(=O)c2cccc(C(=O)O)c2)n1, HATU/TEA, 53.7 mM, 25.0 °C, 4.0 h), the ring closure, yield after HPLC was 48%.

Turning to `Cc1cccc(C)c1-c1cc2nc(n1)NS(=O)(=O)c1cccc(c1)C(=O)N(C1CC3(CC3)C1)[C@H](CCC(C)C)CO2` [Compound 3, (11R)-6-(2,6-Dimethylphenyl)-11-isopentyl-2,2-dioxo-12-spiro[2.3]hexan-5-yl-9-oxa-2λ^6-thia-3,5,12,19-tetrazatricyclo[12.3.1.14,8]nonadeca-1(18),4(19),5,7,14,16-hexaen-13-one], on CFTR [1], the “Ent. A Max Activity (%)” value was “++ (++ is 30-60%)” and the EC50 is less than 1000 nM. In series [2] (from Cc1cccc(C)c1-c1cc(OC[C@@H](CCC(C)C)NC2CC3(CC3)C2)nc(NS(=O)(=O)c2cccc(C(=O)O)c2)n1, HATU/DIEA, 25.0 °C, 3.0 h, 2 steps), this compound returned a ring closure, yield after HPLC of 8%.

Consider `Cc1cccc(C)c1-c1cc2nc(n1)NS(=O)(=O)c1cncc(n1)C(=O)N(C1CC3(CC3)C1)[C@H](CC(C)C)CO2` [Compound 62, (11R)-6-(2,6-Dimethylphenyl)-11-isobutyl-2,2-dioxo-12-spiro[2.3]hexan-5-yl-9-oxa-2λ^6-thia-3,5,12,16,18,19-hexazatricyclo[12.3.1.14,8]nonadeca-1(18),4(19),5,7,14,16-hexaen-13-one], for which, at CFTR [3], the “Ent. B Max Activity (%)” value is on record as “+++ (+++ is >60%)”. For the same compound, the EC50 at CFTR [3] (read-out: Ent. B EC50) was less than 1000 nM. The compound also gave a ring closure, yield after HPLC in series [2] (from Cc1cccc(C)c1-c1cc(OC[C@@H](CC(C)C)NC2CC3(CC3)C2)nc(NS(=O)(=O)c2cncc(C(=O)O)n2)n1, HATU/DIEA, 15.2 mM, 12.0 h) of 65%.

Regarding `Cc1cccc(C)c1-c1cc2nc(n1)NS(=O)(=O)c1cccc(c1)C(=O)N(C1CC3(CCN(CC(F)(F)F)CC3)C1)[C@H](CC(C)C)CO2` [Compound 18, (11R)-6-(2,6-dimethylphenyl)-11-isobutyl-2,2-dioxo-12-[7-(2,2,2-trifluoroethyl)-7-azaspiro[3.5]nonan-2-yl]-9-oxa-2λ^6-thia-3,5,12,19-tetrazatricyclo[12.3.1.14,8]nonadeca-1(18),4(19),5,7,14,16-hexaen-13-one], on CFTR [1], the “Ent. A Max Activity (%)” value is reported as “+++ (+++ is >60%)” and the EC50 was less than 1000 nM. In addition, the “Ent. B Max Activity (%)” value on CFTR [3] was “+++ (+++ is >60%)”. The EC50 at CFTR [3] (read-out: Ent. B EC50) is less than 1000 nM. This compound also came in with a ring closure, yield after HPLC in series [2] (from Cc1cccc(C)c1-c1cc(OC[C@@H](CC(C)C)NC2CC3(CCN(CC(F)(F)F)CC3)C2)nc(NS(=O)(=O)c2cccc(C(=O)O)c2)n1, HATU/DIEA, 25.0 °C, 2.0 h, 2 steps) of 17%.

For the compound `Cc1cccc(C)c1-c1cc2cc(n1)NS(=O)(=O)c1cccc(n1)C(=O)N(C1CC3(CC3)C1)[C@H](CC(C)C)CO2` [Compound 197, (11R)-6-(2,6-Dimethylphenyl)-11-isobutyl-2,2-dioxo-12-spiro[2.3]hexan-5-yl-9-oxa-2λ^6-thia-3,5,12,18-tetrazatricyclo[12.3.1.14,8]nonadeca-1(18),4(19),5,7,14,16-hexaen-13-one], the “Ent. B Max Activity (%)” value at CFTR [3] is on record as “+++ (+++ is >60%)”. Also, the EC50 on CFTR [3] (read-out: Ent. B EC50) is less than 1000 nM. In series [2] (from Cc1cccc(C)c1-c1cc(OC[C@@H](CC(C)C)NC2CC3(CC3)C2)cc(NS(=O)(=O)c2cccc(C(=O)O)n2)n1, HATU/DIEA, 27.1 mM, 2.0 h), the ring closure, yield after HPLC was determined as 59%.

As usually defined, the EC50 is the concentration giving half of the maximal effect.

Values taken from patent US20230382925A1, “MODULATORS OF CYSTIC FIBROSIS TRANSMEMBRANE CONDUCTANCE REGULATOR” (VERTEX PHARMACEUTICALS INCORPORATED, priority 2020, published 2023).
